Source: US20110183892A1 (priority 2007, published 2011)
Read-outs that look alike come from different tables or passages of the source.

Key:
HIV-1 −1 PRF signal = type: cell-based, human; details: for stimulation of HIV-1 directed −1 PRF: 5-500 μg/ml; for dose dependence of HIV-1 mediated −1 PRF: Example 2
[1] = test system: SARS-CoV frameshift signal; type: cell-based, human
[2] = test system: endogenous yeast "Killer" virus; experiment: Yeast Killer virus maintenance assay after serial passage; type: cell-based; details: serial passage every 24 h for eight days
[3] = test system: M1 satellite virus dsRNA genome; experiment: dsRNA extraction and TAE-agarose gel of Killer yeast cells; type: cell-based; details: gentamicin treated Killer− cells, ~10-times more RNA loaded than control
HIV-1 strain LAI = experiment: Limit-dilution titer of infectious virus with p24 antigen capture assay; type: cell-based; details: Jurkat E6-1, 250 μg/ml, days 4-10 post infection
Protocol: (A) Jurkat E6-1 cells were grown in RPMI-1640 media supplemented with 10% FBS. Cells were infected with HIV-1 (LAI) at an MOI of 0.01 in media containing gentamicin at 0, 50, 250, or 500 μg/ml. Infected or mock infected cells were maintained in the above media containing the corresponding concentration of gentamicin. Clarified viral supernatant was assayed for RT activity on days 2, 4, 6, 8, and 10 post infection. […] Results are from an average of 3 experiments with error bars corresponding to standard deviation values. (B) Clarified viral supernatants from days 4, 6, 8, and 10 above were used to perform limit-dilution assays in order to determine the level of infectious virus produced in untreated and gentamicin treated cells. A p24 antigen capture assay was used to detect virus. Results are reported as TCID50/ml vs. day post infection. The antigen capture assay was repeated with similar results while the RT activity assay was repeated twice with similar results.
Cells and viruses. Jurkat E6-1 cells (obtained through the ATCC) were cultured in RPMI-1640 supplemented with 10% fetal bovine serum at 37° C. and 5% CO2 according to the ATCC data sheet. HIV-1 strain LAI was obtained through the NIH AIDS Research and Reference Reagent Program.
HIV infection of Jurkat cells. All experiments were performed with Jurkat cells in 24-well plates and in duplicate. […]

Jurkat E6-1 cells = details: Jurkat E6-1, 500 μg/ml
HIV-1 RT = HIV-1 RT (Human immunodeficiency virus type 1 group M subtype B, UniProt P04585); experiment: Control experiments on HIV-1 RT activity
[4] = HeLa cells, 5, 25, 50, 250 and 500 ug/ml
[5] = Jurkat cells, 5, 25, 50, 250 and 500 ug/ml

With gentamicin the “HIV-1 directed −1 PRF at the concentration normally used in cell culture” value (HIV-1 −1 PRF signal; HeLa CD4+ and Jurkat cells, 50 μg/ml) was “increased −1 PRF was observed”, the “stimulation of HIV-1 directed −1 PRF” value (HIV-1 −1 PRF signal; HeLa CD4+ cells) was “about 40%” and the “stimulation of HIV-1 directed −1 PRF” value (HIV-1 −1 PRF signal; HeLa CD4+ cells, listed as Gentamicin) was “up to 40%”. The “dose dependence of HIV-1 mediated −1 PRF” value (HIV-1 −1 PRF signal; [4]) was “dose-dependently increased”, the “dose dependence of HIV-1 mediated −1 PRF” value (HIV-1 −1 PRF signal; [5]) was “dose-dependently increased” and the “stimulation of HIV-1 directed −1 PRF” value (HIV-1 −1 PRF signal; Jurkat cells) was “about 40%”. The “stimulation of HIV-1 directed −1 PRF” value (HIV-1 −1 PRF signal; Jurkat cells, listed as Gentamicin) was “up to 40%”, the “dose dependence of SARS-CoV mediated −1 PRF” value [1, 4] was “dose-dependently increased” and the “dose dependence of SARS-CoV mediated −1 PRF” value [1, 5] was “dose-dependently increased”. For the same substance, the Killer phenotype maintenance ([2]; 50 μg/ml) was “rapid loss of the Killer phenotype”, the Killer phenotype maintenance ([2]; 500 μg/ml) was “rapid loss of the Killer phenotype” and the “presence of M1 dsRNA genome” value [3] was “no longer present”. The “infectious virus in cell-free supernatant” value (HIV-1 strain LAI) was “no infectious virus was made”, the cell toxicity (Jurkat E6-1 cells) was “Significant cell toxicity” and the cell toxicity (Jurkat E6-1 cells; listed as Gentamicin) was “significant cell toxicity”. For the same substance, the “effect on HIV-1 RT activity” value (HIV-1 RT) was “did not affect HIV-1 RT activity”.
